According to patent US11207424B2, “Methods and materials for increasing viral vector infectivity” (Mayo Foundation for Medical Education and Research, priority 2014, dated 2021):
Read-outs that look alike come from different tables or passages of the source.

How the values were obtained:
[1] = tested on: neonatal rat cardiomyocytes; assay: AAV2 CMV-Luc or scAAV9 CMV-GFP transduction of neonatal rat cardiomyocytes; assay type: cell-based
Experimental: FIG. 23 presents a graph plotting the relative luciferase activity and images of GFP-expressing cells in neonatal rat cardiomyocytes. Primary cardiomyocytes were infected with AAV2 CMV-Luc or scAAV9 CMV-GFP vectors and treated with meayamycin B, 3 hours p.i. Luciferase activity was measured 3 days p.i., while GFP expression was monitored at 5 days p.i.
(§1) The ability of meayamycin B to boost AAV transduction in various cell types, relevant to gene therapy applications, was also tested. First, primary pancreatic islets were isolated from 8 week-old C57B1/6 mice, which were then transduced with AAV8 CMV-GFP and treated with 2 nM meayamycin B 3 hours p.i. Cells were monitored by BioStation Live Imaging for three days. […] (FIG. 21). The effects of meayamycin B on primary human pancreatic islets were then tested. Cells were infected with AAV2 or AAV9 CMV-Luc vectors and treated with 0, 2, 5, or 20 nM meayamycin B at 7 hours p.i. When luciferase expression was monitored at 48 hours p.i., a dose-dependent increase in luciferase expression in AAV2 and AAV9 infected cells (up to 44- and 24-fold increases in AAV9 and AAV2 transduction) was observed (FIG. 22). The effects on neonatal rat cardiomyocytes were tested next. Primary cardiomyocytes were infected with AAV2 CMV-Luc, followed by 0, 2, or 10 nM meayamycin B treatments at 3 hours post infection for 3 days. […] (FIG. 23).

HeLa cells [2] = assay type: cell-based; conditions: for increase in relative luciferase activity: 48 hours p.i.
[3] = tested on: primary pancreatic islets; assay: AAV8 CMV-GFP transduction of primary mouse pancreatic islets, live imaging; assay type: cell-based, C57B1/6 mice; conditions: 2 nM at 3 hours p.i., 48 and 72 hours p.i.
Experimental: FIG. 21 contains photographs of murine islet cells exposed to AAV8-GFP vectors along with meayamycin (2 nM). Images of GFP expressing islets were taken at two and three days post infection.
as §1

[4] = tested on: primary human pancreatic islets; assay: AAV2 or AAV9 CMV-Luc transduction of primary human pancreatic islets, luciferase; assay type: cell-based; conditions: human islets, 0, 2, 5 or 20 nM at 7 hours p.i., 48 hours p.i.
Experimental: FIG. 22 contains graphs plotting relative light units in human islet cells 48 hours post infection with an AAV2 or AAV9 vector and following treatment with the indicate amount of meayamycin at 7 hours post infection. Luciferase expression was analyzed 48 hours p.i.
as §1

HeLa cells [5] = assay: GFP-expressing single-stranded AAV9 or scAAV9 vector transduction of HeLa cells, flow cytometry; assay type: cell-based; conditions: AAV9 CMV-GFP or scAAV9 CMV-GFP, 20 nM at 8 hours p.i., 48 hours p.i.
Experimental: FIG. 20 contains flow cytometry data plotting the infectivity of GFP-expressing single-stranded AAV9 or self-complementary (sc) AAV9 vectors. HeLa cells were infected by AAV9 CMV-GFP or scAAV9 CMV-GFP vectors, followed by treatment with 20 nM meayamycin B at 8 hours p.i. Flow cytometry analysis was performed to observe GFP-positive cell populations at 48 hours p.i.
To understand the mechanism of U2 snRNP-mediated block of AAV vector transduction, the optimal timing of meayamycin B treatment in relationship to AAV infection was further assessed. Pretreatment with the drug was not needed in order for it to enhance AAV9 infection (FIG. 18). […] To further map the optimal timing of U2 snRNP inhibition for AAV vector transduction, AAV2 and AAV9 vector-infected HeLa cells were treated with 5 nM meayamycin B at various time points and duration, and luciferase activity was assessed at 3 days p.i. […] In contrast, the effects of meayamycin B on AAV vector transduction were impaired when drug was added either 24 or 48 hours p.i. (FIG. 19). Thus, optimal enhancement of AAV vector transduction involved initiation of U2 snRNP inhibition prior to 24 hours post AAV vector infection.

[6] = tested on: cancer cell lines and clinically relevant cell types, including pancreatic islets and hepatocytes; assay: Summary statement: AAV vector transduction of cancer cell lines and clinically relevant cell types; assay type: cell-based; conditions: summary over cell types
Description: Thus, genetic and/or pharmacological inhibition of U2 snRNP can be used to increase AAV vector transduction, which allows for efficient AAV vector gene therapy with reduced vector doses.

[7] = tested on: primary porcine hepatocytes; assay: AAV2 or AAV9 CMV-Luc transduction of primary porcine hepatocytes, luciferase; assay type: cell-based; conditions: porcine hepatocytes, 0, 2 or 20 nM after 8 hours infection, 48 hours p.i.
Experimental: FIG. 24 contains graphs plotting the relative luciferase activity in porcine hepatocytes exposed to AAV2 or AAV9 CMV-Luc vectors. Cells were infected with AAV vectors for 8 hours, virus was then removed, and cells were treated with 0, 2, or 20 nM meayamycin B. Cells were harvested 48 hours p.i. for the luciferase assay.
as §1

[8] = HeLa, 5 nM, drug 3 hours p.i., washed 1, 2 or 3 days after, luciferase at 3 days p.i.

## CC(/C=C/[C@H]1OC(C)(C)C[C@@]2(CO2)[C@@H]1O)=C\C[C@@H]1O[C@H](C)[C@H](NC(=O)/C=C\[C@H](C)OC(=O)N2CCOCC2)C[C@@H]1C [meayamycin B]
[1]; AAV2 CMV-Luc, 2 nM at 3 hours post infection for 3 days
  vector transduction (luciferase): did not strongly improve vector transduction
[1]; AAV2 CMV-Luc, 10 nM at 3 hours post infection for 3 days
  increase in luciferase expression: 72 fold
[1]; scAAV9 CMV-GFP, 10 nM, 5 days p.i.
  GFP expression: notable increase in GFP expression
HeLa cells [2]; HeLa cells pre-treated at increasing dose 3 hours before AAV9 vector infection
  increase in relative luciferase activity: up to 49 fold
HeLa cells [2]; [8]
  increase in AAV2 vector transduction (luciferase): up to 380 fold
  increase in AAV9 vector transduction (luciferase): ≤ 359 fold
HeLa cells [2]; HeLa, 20 nM, treated 9 hours post AAV9 vector infection
  increase in relative luciferase activity: 464 fold
HeLa cells [2]; HeLa, AAV2 and AAV9, drug added either 24 or 48 hours p.i.
  effects on AAV vector transduction, late drug addition: impaired
HeLa cells [2]; HeLa, AAV2 and AAV9, washout for 48 hours after 3-24 hours of treatment
  effect of washout on AAV vector transduction enhancement: did not strongly compromise its effects on AAV vector transduction
HeLa cells [2]; HeLa, AAV9, 20 nM, treatment at 33 hours p.i.
  effect on relative luciferase activity: relatively weak effects
[3]
  GFP expressing cells in islets vs control islets: increased numbers of GFP expressing cells
[4]
  increase in AAV2 transduction (luciferase expression): ≤ 24 fold
  increase in AAV9 transduction (luciferase expression): up to 44 fold
HeLa cells [5]
  transduction by GFP-expressing vectors (number and fluorescent intensity of GFP-positive cells): enhanced the transduction by both single-stranded and self-complementary AAV vectors
[6]
  increase in vector transduction: up to 1000 fold
[7]
  increase in AAV2 vector transduction (luciferase): ≤ 18 fold
  increase in AAV9 vector transduction (luciferase): up to 57 fold
